Molecular target: hNav1.7 (Homo sapiens (Human), UniProt Q15858)
Assay: Tritiated aryl sulfonamide binding to membranes from cells expressing hNav1.7 and the β1 subunit (competitive binding)
Details: membranes with hNav1.7 and β1 subunit; [3H]compound displacement, 18 h, room temperature; read-out: NaV1.7 395 Memb Binding (IC50)
Procedure: Tritiated Aryl Sulfonamide Binding to Membranes Isolated from Cells that Heterologously Express hNav1.7 and the β1 Subunit
Preparation of membranes containing recombinantly expressed sodium channels: Frozen recombinant cell pellets were thawed on ice and diluted to 4 times the cell pellet weight with ice cold 50 mM Tris HCl, pH 7.4 buffer. The cell suspensions were homogenized on ice using a motorized glass dounce homogeniser. Homogenates were further diluted 8.4 times with ice cold 50 mM Tris HCl, pH 7.4 buffer and then centrifuged at 200×g at 4° C. for 15 min. The supernatants were collected and centrifuged at 10000×g at 4° C. for 50 min. The pellets were then re-suspended in 100 mM NaCl, 20 mM Tris HCl, pH 7.4 buffer containing 1% v/v protease inhibitors (Calbiochem) and re-homogenized on ice. The homogenized membranes were then processed through a syringe equipped with a 26 gauge needle. Protein concentrations were determined by Bradford Assay and the membranes were stored at −80° C.
Radioligand Binding Studies: Saturation experiments. A representative compound of formula (I) was tritiated. Three tritiums were incorporated in place of methyl hydrogens to generate [^3H]compound. Binding of this radioligand was preformed in 5 mL borosilicate glass test tubes at room temperature. Binding was initiated by adding membranes to increasing concentrations of [^3H]compound in 100 mM NaCl, 20 mM Tris HCl, pH 7.4 buffer containing 0.01% w/v bovine serum albumin (BSA) for 18 h. Non-specific binding was determined in the presence of 1 μM unlabelled compound. After 18 h, the reactants were filtered through GF/C glass fiber filters presoaked in 0.5% w/v polyethylene imine. […] [^3H]compound bound to filters was quantified by liquid scintillation counting.
Competitive binding experiments. Binding reactions were preformed in 96-well polypropylene plates at room temperature for 18 h. In 360 μL, membranes were incubated with 100 μM [^3H]compound and increasing concentrations of Test Compound. Non-specific binding was defined in the presence of 1 μM unlabelled compound. Reactions were transferred and filtered through 96-well glass fiber/C filter plates presoaked with 0.5% polyethylene imine. The filtered reactions were washed 5 times with 200 L ice cold buffer containing 0.25% BSA. Bound radioactivity was determined by liquid scintillation counting.
Data Analysis: For saturation experiments, non-specific binding was subtracted from total binding to provide specific binding and these values were recalculated in terms of pmol ligand bound per mg protein. Saturation curves were constructed and dissociation constants were calculated using the single site ligand binding model: Beq=(Bmax*X)/(X+Kd), where Beq is the amount of ligand bound at equilibrium, Bmax is the maximum receptor density, Kd is the dissociation constant for the ligand, and X is the free ligand concentration.

Chain of hNav1.7 (Q15858 whole entry, looked up): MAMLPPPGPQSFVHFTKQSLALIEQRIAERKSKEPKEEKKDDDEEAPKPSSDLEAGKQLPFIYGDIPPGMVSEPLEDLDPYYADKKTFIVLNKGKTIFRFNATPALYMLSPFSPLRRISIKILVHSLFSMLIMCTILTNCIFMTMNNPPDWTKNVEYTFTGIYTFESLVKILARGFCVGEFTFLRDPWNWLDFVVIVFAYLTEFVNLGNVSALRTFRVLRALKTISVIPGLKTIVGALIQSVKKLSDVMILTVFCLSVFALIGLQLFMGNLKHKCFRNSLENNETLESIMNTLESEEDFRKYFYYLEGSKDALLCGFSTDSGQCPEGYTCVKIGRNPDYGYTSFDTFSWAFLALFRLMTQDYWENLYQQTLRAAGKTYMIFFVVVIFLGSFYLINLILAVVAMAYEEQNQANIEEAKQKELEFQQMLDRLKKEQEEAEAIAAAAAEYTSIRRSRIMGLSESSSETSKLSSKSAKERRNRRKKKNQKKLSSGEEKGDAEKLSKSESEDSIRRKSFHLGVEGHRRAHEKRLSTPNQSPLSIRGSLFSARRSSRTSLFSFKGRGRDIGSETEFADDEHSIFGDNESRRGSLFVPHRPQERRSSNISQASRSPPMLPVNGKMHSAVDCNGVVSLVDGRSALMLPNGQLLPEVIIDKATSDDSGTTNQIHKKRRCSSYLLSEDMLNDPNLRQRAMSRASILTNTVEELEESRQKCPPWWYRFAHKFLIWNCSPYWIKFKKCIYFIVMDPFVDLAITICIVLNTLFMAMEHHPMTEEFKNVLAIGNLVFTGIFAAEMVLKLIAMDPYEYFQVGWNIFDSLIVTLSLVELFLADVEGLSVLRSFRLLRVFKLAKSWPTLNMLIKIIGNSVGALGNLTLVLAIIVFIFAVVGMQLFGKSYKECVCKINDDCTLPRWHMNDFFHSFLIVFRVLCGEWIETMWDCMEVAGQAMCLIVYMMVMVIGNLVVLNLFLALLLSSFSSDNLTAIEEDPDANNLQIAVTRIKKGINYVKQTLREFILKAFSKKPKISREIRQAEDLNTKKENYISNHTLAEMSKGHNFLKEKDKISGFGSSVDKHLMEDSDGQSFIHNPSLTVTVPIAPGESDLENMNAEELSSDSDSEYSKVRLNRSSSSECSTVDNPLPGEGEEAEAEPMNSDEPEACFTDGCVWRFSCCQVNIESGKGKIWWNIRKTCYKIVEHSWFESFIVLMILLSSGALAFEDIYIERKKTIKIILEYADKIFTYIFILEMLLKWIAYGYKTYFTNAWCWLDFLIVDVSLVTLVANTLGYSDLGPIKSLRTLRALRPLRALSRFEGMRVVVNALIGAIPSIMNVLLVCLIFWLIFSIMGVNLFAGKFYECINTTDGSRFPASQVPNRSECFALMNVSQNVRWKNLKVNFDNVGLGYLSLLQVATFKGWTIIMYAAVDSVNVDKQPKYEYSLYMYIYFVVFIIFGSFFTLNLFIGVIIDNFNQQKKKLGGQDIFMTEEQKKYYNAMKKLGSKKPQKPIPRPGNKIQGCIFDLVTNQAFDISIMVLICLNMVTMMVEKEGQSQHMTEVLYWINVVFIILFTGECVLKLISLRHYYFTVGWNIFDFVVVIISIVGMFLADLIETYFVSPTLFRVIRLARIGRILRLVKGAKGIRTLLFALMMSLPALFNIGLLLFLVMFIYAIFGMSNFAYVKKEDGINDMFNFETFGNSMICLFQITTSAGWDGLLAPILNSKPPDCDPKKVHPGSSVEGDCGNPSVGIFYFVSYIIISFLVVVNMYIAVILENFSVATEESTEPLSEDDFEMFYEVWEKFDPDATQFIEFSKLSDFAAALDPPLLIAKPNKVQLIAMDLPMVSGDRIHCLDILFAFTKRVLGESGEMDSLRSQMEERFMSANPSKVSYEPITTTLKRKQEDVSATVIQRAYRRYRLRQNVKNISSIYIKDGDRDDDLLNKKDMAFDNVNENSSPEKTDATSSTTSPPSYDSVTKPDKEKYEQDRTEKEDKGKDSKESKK
Chain of hNav1.7 (Q07699 whole entry partner, looked up): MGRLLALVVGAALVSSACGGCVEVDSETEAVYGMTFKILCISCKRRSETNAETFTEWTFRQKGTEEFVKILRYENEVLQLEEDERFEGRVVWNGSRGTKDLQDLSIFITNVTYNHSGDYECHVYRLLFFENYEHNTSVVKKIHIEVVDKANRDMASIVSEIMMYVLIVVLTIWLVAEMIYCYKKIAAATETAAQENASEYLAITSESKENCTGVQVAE

SMILES	IC50
CN(C)S(=O)(=O)NC(=O)c1cc(Cl)c(OCC2CCCCC2)cc1F	322 nM
CN(C)S(=O)(=O)NC(=O)c1cc(Cl)c(OCC2CCCC2)cc1F	672 nM
CS(=O)(=O)NC(=O)c1cc(Cl)c(OCC2(C(F)(F)F)CC2)cc1F	603 nM
CS(=O)(=O)NC(=O)c1cc(Cl)c(OCC23CC4CC(CC(Cl)(C4)C2)C3)cc1F	53 nM
CS(=O)(=O)NC(=O)c1cc(Cl)c(OC[C@H]2CC[C@H](C(F)(F)F)CC2)cc1F	158 nM
CC1(C)[C@H]2CC[C@@H](COc3cc(F)c(C(=O)NS(C)(=O)=O)cc3Cl)[C@@H]1C2	44 nM
COc1ncccc1-c1cc(C(=O)NS(C)(=O)=O)ccc1OCC12CC3CC(CC(C3)C1)C2	803 nM
CS(=O)(=O)NC(=O)c1cc(Cl)c(OCC2C3CC4CC(C3)CC2C4)cc1F (stereo not drawn)	17 nM
CS(=O)(=O)NC(=O)c1cc(Cl)c(COc2ccc3c(c2)CCCC3)cc1F	86 nM
CC1(C)C(COc2ccc(C(=O)NS(C)(=O)=O)cc2Cl)C1(C)C	181 nM
CC1(C)[C@H]2CC=C(COc3cc(F)c(C(=O)NS(C)(=O)=O)cc3Cl)[C@@H]1C2	117 nM
CS(=O)(=O)NC(=O)c1cc(Cl)c(OCC2CC3CCC2C3)cc1F (stereo not drawn)	80 nM
CS(=O)(=O)NC(=O)c1cc(Cl)c(OCC2CCCCCC2)cc1F	44 nM
CCCCCC12CCC(COc3cc(F)c(C(=O)NS(C)(=O)=O)cc3Cl)(CC1)CC2	9 nM
CS(=O)(=O)NC(=O)c1cc(Cl)c(O[C@@H]2C[C@@H]3CC[C@H]2C3)cc1F	167 nM
CC1(C)[C@H]2CC[C@](C)(C2)[C@H]1Oc1cc(F)c(C(=O)NS(C)(=O)=O)cc1Cl	7120 nM
CC(C)[C@H]1CC[C@H](C)C[C@@H]1Oc1cc(F)c(C(=O)NS(C)(=O)=O)cc1Cl	1320 nM
CS(=O)(=O)NC(=O)c1cc(Cl)c(OC2CC3CCC2C3)cc1F (stereo not drawn)	491 nM
CS(=O)(=O)NC(=O)c1cc(Cl)c(OC2CC3CC2C2CCCC32)cc1F (stereo not drawn)	205 nM
CC(C)[C@H]1CC[C@H](Oc2cc(F)c(C(=O)NS(C)(=O)=O)cc2Cl)CC1	57 nM
CC1(C)CCCC(Oc2cc(F)c(C(=O)NS(C)(=O)=O)cc2Cl)C1 (stereo not drawn)	93 nM
CC1(C)CCC(Oc2cc(F)c(C(=O)NS(C)(=O)=O)cc2Cl)CC1	166 nM
CN(C)S(=O)(=O)NC(=O)c1cc(Cl)c(O[C@@H]2C[C@@H]3CC[C@@]2(C)C3(C)C)cc1F	230 nM
CN(C)S(=O)(=O)NC(=O)c1cc(Cl)c(OC2C3CC4CC2CC(Cl)(C4)C3)cc1F (stereo not drawn) [listing 1 of 2 here]	283 nM
CN(C)S(=O)(=O)NC(=O)c1cc(Cl)c(OCCC2CCCC2)cc1F	542 nM
CC(C)[C@H]1CC[C@H](Oc2cc(F)c(C(=O)NS(=O)(=O)N(C)C)cc2Cl)CC1	138 nM

SMILES	IC50
CN(C)S(=O)(=O)NC(=O)c1cc(Cl)c(OC2C3CC4CC2CC(Cl)(C4)C3)cc1F (stereo not drawn) [listing 2 of 2 here]	419 nM
CS(=O)(=O)NC(=O)c1cc(Cl)c(OC2CCC3(CCCCC3)CC2)cc1F	67 nM
CN(C)S(=O)(=O)NC(=O)c1cc(Cl)c(OCCC2CCCCCC2)cc1F	210 nM
CN(C)S(=O)(=O)NC(=O)c1cc(Cl)c(OCCCC2CCCCC2)cc1F	295 nM
CN(C)S(=O)(=O)NC(=O)c1cc(Cl)c(OC2CCC3(CCCCC3)CC2)cc1F	281 nM
CN(C)S(=O)(=O)NC(=O)c1cc(Cl)c(OC2CCC3(CCCC3)CC2)cc1F	273 nM
CN(C)S(=O)(=O)NC(=O)c1cc(Cl)c(OC2CCC(C(F)(F)F)CC2)cc1F (stereo not drawn)	3520 nM
CN(C)S(=O)(=O)NC(=O)c1cc(Cl)c(OCCCC2CCCC2)cc1F	300 nM
CN(C)S(=O)(=O)NC(=O)c1cc(Cl)c(OCCC23CC4CC(CC(C4)C2)C3)cc1F	166 nM
CS(=O)(=O)NC(=O)c1cc(Cl)c(OCC23CC4CC(C2)C(F)(F)C(C4)C3)cc1F	27 nM
CS(=O)(=O)NC(=O)c1cc(C2CC2)c(OCC23CC4CC(CC(F)(C4)C2)C3)cc1F	3 nM
COC12CC3CC(CC(COc4cc(F)c(C(=O)NS(C)(=O)=O)cc4C4CC4)(C3)C1)C2	12 nM
CS(=O)(=O)NC(=O)c1cc(C2CC2)c(OCC2CCC3(CC2)CC3)cc1F	2 nM
CS(=O)(=O)NC(=O)c1cc(Cl)c(OCC23CC4CC(CC(F)(C4)C2)C3)cc1F	120 nM
CS(=O)(=O)NC(=O)c1ccc(OCC23CC4CC(CC(F)(C4)C2)C3)cc1F	1640 nM
Cc1cc(C(=O)NS(=O)(=O)N2CCC2)c(F)cc1OCC12CC3CC(CC(C3)C1)C2	10 nM
CCS(=O)(=O)NC(=O)c1cc(C2CC2)c(OCC23CC4CC(CC(C4)C2)C3)cc1F	1 nM
CC(C)(C)S(=O)(=O)NC(=O)c1cc(C2CC2)c(OCC23CC4CC(CC(C4)C2)C3)cc1F	3 nM
CS(=O)(=O)NC(=O)c1ccc(OCC2CCC3(CC2)CC3)cc1F	152 nM
COCCNS(=O)(=O)NC(=O)c1cc(C2CC2)c(OCC23CC4CC(CC(C4)C2)C3)cc1F	12 nM
CS(=O)(=O)NC(=O)c1cc(Cl)c(O[C@H]2C3CC4CC2C[C@](F)(C4)C3)cc1F	120 nM
O=C(NS(=O)(=O)N1CCC1)c1cc(C2(O)COC2)c(OCC23CC4CC(CC(C4)C2)C3)cc1F	70 nM
CNS(=O)(=O)NC(=O)c1ccc(C2C3CC4CC(C3)CC2C4)c(Cl)c1 (stereo not drawn)	1700 nM
CS(=O)(=O)NC(=O)c1cc(C2CC2)c(OCC2(F)C3CC4CC(C3)CC2C4)cc1F (stereo not drawn)	4 nM
CS(=O)(=O)NC(=O)c1cnc(OCC23CC4(F)CC(F)(CC(F)(C4)C2)C3)c(Cl)c1	21500 nM
CNS(=O)(=O)NC(=O)c1cc(C2CC2)c(OCC2CCCCC2)cc1F	12 nM

SMILES	IC50
COCCS(=O)(=O)NC(=O)c1cc(Cl)c(OCC2(C#N)C3CC4CC(C3)CC2C4)cc1F (stereo not drawn)	990 nM
CNS(=O)(=O)NC(=O)c1cc(Cl)c(OCC2(C#N)C3CC4CC(C3)CC2C4)cc1F (stereo not drawn)	880 nM
CS(=O)(=O)NC(=O)c1cc(Cl)c(OCC2(C#N)C3CC4CC(C3)CC2C4)cc1F (stereo not drawn)	310 nM
CS(=O)(=O)NC(=O)c1cc(C2CC2)c(OCC2C3CC4CC(C3)CC2C4)cc1F (stereo not drawn)	3.1 nM
COCCS(=O)(=O)NC(=O)c1cc(C2CC2)c(OCC2C3CC4CC(C3)CC2C4)cc1F (stereo not drawn)	5 nM
O=C(NS(=O)(=O)CCO)c1cc(C2CC2)c(OCC2CCCCC2)cc1F	66 nM
CS(=O)(=O)NC(=O)c1cc(I)c(OCC23CC4CC(CC(C4)C2)C3)cc1F	8 nM
CCOCCS(=O)(=O)NC(=O)c1cc(C2CC2)c(OCC23CC4CC(CC(C4)C2)C3)cc1F	12 nM
COCCCS(=O)(=O)NC(=O)c1cc(C2CC2)c(OCC23CC4CC(CC(C4)C2)C3)cc1F	22 nM
CC(C)OCCS(=O)(=O)NC(=O)c1cc(C2CC2)c(OCC23CC4CC(CC(C4)C2)C3)cc1F	40 nM
CS(=O)(=O)NC(=O)c1cc(Cl)c(OCC23CC4CC(CC(C4)C2)C3)c(Cl)c1	540 nM
N#CC1CN(S(=O)(=O)NC(=O)c2cc(C3CC3)c(OCC34CC5CC(CC(C5)C3)C4)cc2F)C1	12 nM
CS(=O)(=O)NC(=O)c1cc(C2CC2)c(OCC2(C#N)C3CC4CC(C3)CC2C4)cc1F (stereo not drawn)	22 nM
O=C(NS(=O)(=O)N1CC[C@H](O)C1)c1cc(C2CC2)c(OCC2CCCCC2)cc1F	160 nM
CC(O)c1cc(C(=O)NS(=O)(=O)N2CCC2)c(F)cc1OCC12CC3CC(CC(C3)C1)C2 (stereo not drawn)	12 nM
O=C(NS(=O)(=O)N1CCOCC1)c1cc(C2CC2)c(O[C@H]2C3CC4CC2C[C@](Cl)(C4)C3)cc1F	16 nM
CNS(=O)(=O)NC(=O)c1cc(C2CC2)c(OCC2(C#N)C3CC4CC(C3)CC2C4)cc1F (stereo not drawn)	43 nM
CC(=O)c1cc(C(=O)NS(=O)(=O)N2CCC2)c(F)cc1OCC12CC3CC(CC(C3)C1)C2	60 nM
O=C(NS(=O)(=O)N1CCC2(CC1)COC2)c1cc(C2CC2)c(OCC23CC4CC(CC(C4)C2)C3)cc1F	630 nM
COCCS(=O)(=O)NC(=O)c1cc(C2CC2)c(OCC2(C(F)(F)F)CCCCC2)cc1F	30 nM
O=C(NS(=O)(=O)N1CCC1)c1cc(C2CC2)c(OCC2CCCC2)cc1F	36 nM
O=C(NS(=O)(=O)N1CCC1)c1cc(C2CC2)c(OCC23CC4CC(CC(CO)(C4)C2)C3)cc1F	80 nM
O=C(NS(=O)(=O)N1CCC1)c1cc(Cl)c(OCC2(C(F)(F)F)CCCC2)cc1F	30 nM
CS(=O)(=O)NC(=O)c1cc(Cl)c(OCC2CCC3(CCC3)CC2)cc1F	17 nM
CN(C)S(=O)(=O)NC(=O)c1cc(Cl)c(OCC2C3CC4CC(C3)CC2C4)cc1F (stereo not drawn)	51 nM
CS(=O)(=O)NC(=O)c1cc(Cl)c(OCC2CCC(F)(F)CC2)cc1F	558 nM

Reference: US8952169B2 (Genentech, Inc., priority 2012, dated 2015)
